Target: CDK2/Cyclin E1 (Homo sapiens (Human), UniProt P24941)
Experiment: CDK2/Cyclin E1 HTRF enzyme activity assay (Example A)
Format: biochemical
Conditions: 1 mM ATP
Procedure: Assays were conducted in white 384-well polystyrene plates in a final reaction volume of 8 μL. […] HTRF signals were read after 1 hour at room temperature on a PHERAstar FS plate reader (BMG Labtech). Data was analyzed with IDBS XLFit and GraphPad Prism 5.0 software using a three or four parameter dose response curve to determine IC50 for each compound.

| IC50 [nM] | SMILES |
| --- | --- |
| ≤ 50 | Cc1nc(CN2CCC2)ccc1-n1cnc(-c2nc(NC3CCN(S(C)(=O)=O)CC3)ncc2C(F)(F)F)c1 [Example 252, 4-(1-(6-(Azetidin-1-ylmethyl)-2-methylpyridin-3-yl)-1H-imidazol-4-yl)-N-(1-(methylsulfonyl)piperidin-4-yl)-5-(trifluoromethyl)pyrimidin-2-amine] |
| ≤ 50 | COc1nccc(-n2cc(-c3nc(NC4CCN(S(C)(=O)=O)CC4)ncc3C(F)(F)F)nc2C)c1F [Example 314, 4-(1-(3-Fluoro-2-methoxypyridin-4-yl)-2-methyl-1H-imidazol-4-yl)-N-(1-(methylsulfonyl)piperidin-4-yl)-5-(trifluoromethyl)pyrimidin-2-amine] |
| ≤ 50 | Cc1nc(-c2nc(NC3CCN(S(C)(=O)=O)CC3)ncc2C(F)(F)F)cn1-c1ccc(N2CCC(N3CCCC3)CC2)cc1F [Example 114, 4-(1-(2-Fluoro-4-(4-(pyrrolidin-1-yl)piperidin-1-yl)-phenyl)-2-methyl-1H-imidazol-4-yl)-N-(1-(methyl-sulfonyl)piperidin-4-yl)-5-(trifluoro-methyl)pyrimidin-2-amine] |
| ≤ 50 | CNC(C)c1cccc(-n2cnc(-c3nc(NC4CCN(S(C)(=O)=O)CC4)ncc3C(F)(F)F)c2)c1Cl (stereo not shown) [Example 377, 4-(1-(2-Chloro-3-(1-(methylamino)ethyl)phe-nyl)-1H-imidazol-4-yl)-N-(1-(methylsulfonyl)piperidin-4-yl)-5-(trifluoromethyl)pyrimi-din-2-amine] |
| ≤ 50 | CN(C)CCc1cccc(-n2cnc(-c3nc(NC4CCN(S(C)(=O)=O)CC4)ncc3C(F)(F)F)c2)c1Cl [Example 370, 4-(1-(2-Chloro-3-(2-(dimethylamino)ethyl)phe-nyl)-1H-imidazol-4-yl)-N-(1-(methylsulfonyl)piperidin-4-yl)-5-(trifluoromethyl)pyrimi-din-2-amine] |
| ≤ 50 | CN(C)CCOc1ccc(-n2cnc(-c3nc(N[C@H]4CCN(S(C)(=O)=O)C[C@H]4F)ncc3C(F)(F)F)c2)c(C#N)n1 [Example 53, 6-(2-(Dimethylamino)ethoxy)-3-(4-(2-(((3R,4S)-3-fluoro-1-(methylsulfonyl)piperidin-4-yl)amino)-5-(trifluoromethyl)pyrimidin-4-yl)-1H-imidazol-1-yl)picolinonitrile] |
| ≤ 50 | CS(=O)(=O)N1CCC(Nc2ncc(C(F)(F)F)c(-c3cn(-c4ccc(CN5CCC5=O)cc4Cl)cn3)n2)CC1 [Example 452, 1-(3-Chloro-4-(4-(2-((1-(methylsulfonyl)piperidin-4-yl)amino)-5-(trifluoromethyl)pyrimidin-4-yl)-1H-imidazol-1-yl)benzyl)azetidin-2-one] |
| ≤ 50 | Cc1nc(-c2nc(NC3CCN(S(C)(=O)=O)CC3)ncc2C(F)(F)F)cn1-c1ccc(N[C@@H]2CCCN(C)C2)cc1F [Example 117] |
| ≤ 50 | CCOc1ccc(-n2cnc(-c3nc(NC4CCN(S(C)(=O)=O)CC4)ncc3C(F)(F)F)c2)c(C#N)c1 [Example 436, 5-Ethoxy-2-(4-(2-((1-(methylsulfonyl)piperidin-4-yl)amino)-5-(trifluoromethyl)pyrimidin-4-yl)-1H-imidazol-1-yl)benzonitrile] |
| ≤ 50 | Cc1nccc(-n2cnc(-c3nc(N[C@H]4CCN(S(C)(=O)=O)C[C@H]4F)ncc3C(F)(F)F)c2)c1Cl [Example 301, 4-(1-(3-Chloro-2-methylpyridin-4-yl)-1H-imidazol-4-yl)-N-((3R,4S)-3-fluoro-1-(methylsulfonyl)piperidin-4-yl)-5-(trifluoromethyl)pyrimidin-2-amine] |
| ≤ 50 | Cc1ccc(-n2cnc(-c3nc(NC4CCN(S(C)(=O)=O)CC4)ncc3C(F)(F)F)c2)c(C(F)(F)F)n1 [Example 44, 4-(1-(6-Methyl-2-(trifluoromethyl)pyridin-3-yl)-1H-imidazol-4-yl)-N-(1-(methylsulfonyl)piperidin-4-yl)-5-(trifluoromethyl)pyrimidin-2-amine] |
| ≤ 50 | C[C@@H]1CN(S(=O)(=O)c2cn(C)cn2)CC[C@@H]1Nc1ncc(C(F)(F)F)c(-c2cn(CC(F)F)cn2)n1 [Example 337, 4-(1-(2,2-Difluoroethyl)-1H-imidazol-4-yl)-N-((3R,4S)-3-methyl-1-((1-methyl-1H-imidazol-4-yl)sulfonyl)piperidin-4-yl)-5-(trifluoromethyl)pyrimidin-2-amine] |
| ≤ 50 | Cc1nc(-c2nc(NC3CCN(S(C)(=O)=O)CC3)ncc2C(F)(F)F)cn1-c1ccc(C2CNC2)cc1F [Example 160, 4-(1-(4-(Azetidin-3-yl)-2-fluorophenyl)-2-methyl-1H-imidazol-4-yl)-N-(1-(methylsulfonyl)piperidin-4-yl)-5-(trifluoromethyl)pyrimidin-2-amine] |
| ≤ 50 | CS(=O)(=O)N1CCC(Nc2ncc(C(F)(F)F)c(-c3cn(-c4ccc(Cn5cnnn5)cc4Cl)cn3)n2)CC1 [Example 244, 4-(1-(4-((1H-Tetrazol-1-yl)methyl)-2-chlorophenyl)-1H-imidazol-4-yl)-N-(1-(methylsulfonyl)piperidin-4-yl)-5-(trifluoromethyl)pyrimidin-2-amine] |
| ≤ 50 | CS(=O)(=O)N1CCC(Nc2ncc(C(F)(F)F)c(-c3cn(-c4ccc(CN5CC(C#N)C5)cc4Cl)cn3)n2)CC1 [Example 198, 1-(3-Chloro-4-(4-(2-((1-(methylsulfonyl)-piperidin-4-yl)amino)-5-(trifluoromethyl)-pyrimidin-4-yl)-1H-imidazol-1-yl)benzyl)-azetidine-3-carbonitrile] |
| ≤ 50 | CS(=O)(=O)N1CCC(Nc2ncc(C(F)(F)F)c(-c3cn(-c4ccc(Cn5cncn5)cc4Cl)cn3)n2)CC1 [Example 240, 4-(1-(4-((1H-1,2,4-Triazol-1-yl)methyl)-2-chlorophenyl)-1H-imidazol-4-yl)-N-(1-(methylsulfonyl)piperidin-4-yl)-5-(trifluoromethyl)pyrimidin-2-amine] |
| ≤ 50 | CNC1CCN(c2ccc(-n3cc(-c4nc(NC5CCN(S(C)(=O)=O)CC5)ncc4C(F)(F)F)nc3C)c(F)c2)CC1 [Example 107, 4-(1-(2-Fluoro-4-(4-(methylamino)-piperidin-1-yl)-phenyl)-2-methyl-1H-imidazol-4-yl)-N-(1-(methyl-sulfonyl)piperidin-4-yl)-5-(trifluoro-methyl)pyrimidin-2-amine] |
| ≤ 50 | CN(C)CCOc1ccc(-n2cnc(-c3nc(NC4CCN(S(C)(=O)=O)CC4)ncc3C(F)(F)F)c2)c(C#N)c1 [Example 435, 5-(2-(Dimethylamino)ethoxy)-2-(4-(2-((1-(methylsulfonyl)piperidin-4-yl)amino)-5-(trifluoromethyl)pyrimidin-4-yl)-1H-imidazol-1-yl)benzonitrile] |
| ≤ 50 | CS(=O)(=O)N1CCC(Nc2ncc(C(F)(F)F)c(-c3cn(-c4ccc5nccnc5c4C#N)cn3)n2)CC1 [Example 167, 6-(4-(2-((1-(Methylsulfonyl)piperidin-4-yl)amino)-5-(trifluoromethyl)pyrimidin-4-yl)-1H-imidazol-1-yl)quinoxaline-5-carbonitrile] |
| ≤ 50 | CS(=O)(=O)N1CCC(Nc2ncc(C(F)(F)F)c(-c3cn(C(CC#N)C4CC4)cn3)n2)CC1 (stereo not shown) [Example 25, 3-Cyclopropyl-3-(4-(2-((1-(methylsulfonyl)piperidin-4-yl)amino)-5-(trifluoromethyl)pyrimidin-4-yl)-1H-imidazol-1-yl)propanenitrile] |
| ≤ 50 | O=S(=O)(C1CC1)N1CCC(Nc2ncc(C(F)(F)F)c(-c3cn(-c4cccnc4C(F)(F)F)cn3)n2)CC1 [Example 91, N-(1-(Cyclopropylsulfonyl)piperidin-4-yl)-5-(trifluoromethyl)-4-(1-(2-(trifluoromethyl)pyridin-3-yl)-1H-imidazol-4-yl)pyrimidin-2-amine] |
| ≤ 50 | CS(=O)(=O)N1CCC(Nc2ncc(C(F)(F)F)c(-c3cn(-c4c(F)cccc4Cl)cn3)n2)CC1 [Example 54, 4-(1-(2-Chloro-6-fluorophenyl)-1H-imidazol-4-yl)-N-(1-(methylsulfonyl)piperidin-4-yl)-5-(trifluoromethyl)pyrimidin-2-amine] |
| ≤ 50 | CS(=O)(=O)N1CCC(Nc2ncc(C(F)(F)F)c(-c3cn(-c4cccc(-c5cccnc5)c4Cl)cn3)n2)CC1 [Example 97, 4-(1-(2-chloro-3-(Pyridin-3-yl)phenyl)-1H-imidazol-4-yl)-N-(1-(methylsulfonyl)piperidin-4-yl)-5-(trifluoromethyl) pyrimidin-2-amine] |
| ≤ 50 | CS(=O)(=O)N1CCC(Nc2ncc(C(F)(F)F)c(-c3cn(-c4ccc(CN5CCCCC5)cc4Cl)cn3)n2)CC1 [Example 208] |
| ≤ 50 | CCN1CCN(Cc2cc(F)c(-n3cnc(-c4nc(NC5CCN(S(C)(=O)=O)CC5)ncc4C(F)(F)F)c3)c(F)c2)CC1 [Example 351, 4-(1-(4-((4-Ethylpiperazin-1-yl)methyl)-2,6-difluorophenyl)-1H-imidazol-4-yl)-N-(1-(methylsulfonyl)piperidin-4-yl)-5-(trifluoromethyl)pyrimidin-2-amine] |
| ≤ 50 | CN(C)C(=O)c1ccc(-n2cnc(-c3nc(NC4CCN(S(C)(=O)=O)CC4)ncc3C(F)(F)F)c2)c(Cl)c1 [Example 135, 3-Chloro-N,N-dimethyl-4-(4-(2-((1-(methylsulfonyl)piperidin-4-yl)amino)-5-(trifluoromethyl)pyrimidin-4-yl)-1H-imidazol-1-yl)benzamide] |
| ≤ 50 | CS(=O)(=O)N1CCC(Nc2ncc(C(F)(F)F)c(-c3cn(-c4ccc(CN5CC[C@H](O)C5)cc4C(F)(F)F)cn3)n2)CC1 [Example 260, (S)-1-(4-(4-(2-((1-(Methylsulfonyl)piperidin-4-yl)amino)-5-(trifluoromethyl)pyrimidin-4-yl)-1H-imidazol-1-yl)-(trifluoromethyl)benzyl) pyrrolidin-3-ol] |
| ≤ 50 | Cc1nc(-c2nc(NC3CCN(S(C)(=O)=O)CC3)ncc2C(F)(F)F)cn1-c1ccc(CN2CC(C)C2)cc1F [Example 283, 4-(1-(2-Fluoro-4-((3-methylazetidin-1-yl)methyl)phenyl)-2-methyl-1H-imidazol-4-yl)-N-(1-(methylsulfonyl)piperidin-4-yl)-5-(trifluoromethyl)pyrimidin-2-amine] |
